Test results: US20240269157A1, “COMPOSITIONS AND METHODS FOR OVERCOMING MICROENVIRONMENT-MEDIATED RESISTANCE VIA E-SELECTIN TARGETING” (GLYCOMIMETICS, INC., priority 2021, published 2024)

Tests used:
luc-MV4.11 cells = experiment: MV4.11 AML model survival; type: in vivo, NSG mice; conditions: 40 mg/kg Compound A i.p., 100 mg/kg venetoclax oral, 14 days once daily
Method: To evaluate the efficacy of targeting E-selectin with Compound A in combination with venetoclax, an in vivo MV4.11 AML model was employed (FIG. 16).
luc-MV4.11 cells (5×10^6 cells/mouse) were transplanted into NSG mice. Mice were divided into four groups: vehicle treatment only; 40 mg/kg of Compound A (intraperitoneal, 14 day once daily); 100 mg/kg venetoclax (oral, 14 days once daily), and a combination of 40 mg/kg Compound A and 100 mg/kg venetoclax. Drug treatment was initiated on day 10 post-transplantation.

[1] = system: patient-derived primary AML xenograft (JAK2 and c-Kit); experiment: PDX model (mutations in JAK2 and c-Kit), LSC retention and CyTOF of BM cells; type: in vivo, mice
Text: (§1) Intra-vital imaging was employed to investigate the effects of Compound B on AML cell motility in the bone marrow of triple reporter mice (Blood: dextran-TRITC; Host T-cells: DsRed; Host myeloid CD11 cells: EYFP) injected with AML cells carrying a turquoise fluorescent protein reporter gene. […] Individual cells were dislodged from the niche and traveled long-distance (FIG. 17C). The combined inhibition of E-selectin and CXCR4 depleted bone marrow vascular niche areas of leukemia cells.
In order to better understand how the augmented AML mobilization improves the efficacy of AML therapy, BM cells from PDX mice treated for 2 weeks with Compound A, Compound B, venetoclax/HMA (Ven/HMA), and their combinations were analyzed by single-cell proteomics (CyTOF). […] However, pharmacological antagonists of E-selectin (Compound A) or E-selectin/CXCR4 (Compound B) protected endothelial cells from Ven/HMA-induced detrimental insults through upregulation of survival signaling cascades, including pAKT, pERK, pMAPK and […] eNOS expression in endothelial cells compared to Ven/HMA treatment alone.

leukemia cells in the BM = conditions: in vivo; Zhang et al., 2016; cited from earlier work
[2] = system: leukemia cells with ECs and MSCs; conditions: Zhang et al., 2016, cited from earlier work
AML cells in bone marrow = experiment: Intra-vital 2-photon imaging of AML cell motility in bone marrow; type: in vivo, triple reporter mice; conditions: from 2.2 μm/min, p<0.001; i.v. administration
Text: as §1

[3] = in combination with Ven/HMA, 2 weeks, CyTOF of BM cells

| Structure (SMILES) | median survival time (MST) (luc-MV4.11 cells) [days] | levels of E-selectin ligand, mTOR, pFAK, pRb, cMyc [1, 3] | p21 and cleaved caspase3 [1, 3] | protection of MSC ([1]; mouse, in vivo) | protection of endothelial cells from Ven/HMA-induced detrimental insults ([1]; upregulated pAKT, pERK, pMAPK, decreased eNOS vs Ven/HMA alone) | leukemia cells in the BM (leukemia cells in the BM) | leukemia cell adhesion to ECs and MSCs [2] | BM-mediated protection of leukemic cells during FLT3-targeted therapy ([2]; in vitro) | AML cell motility (AML cells in bone marrow) [μm/min] |
| --- | --- | --- | --- | --- | --- | --- | --- | --- | --- |
| CC1(C)CCC(CN2CCN(c3ccc(C(=O)NS(=O)(=O)c4ccc(NCC5CCOCC5)c([N+](=O)[O-])c4)c(Oc4cnc5[nH]ccc5c4)c3)CC2)=C(c2ccc(Cl)cc2)C1 [venetoclax] | 46 | – | – | – | – | – | – | – | – |
| CCC1CC(C(=O)NCCNCc2ccc(CN3CCCNCCNCCCNCC3)c(Br)c2)CC(OC2OC(CO)C(O)C(O[C@@H](CC3CCCCC3)C(=O)O)C2NC(C)=O)C1OC1OC(C)C(O)C(O)C1O (stereo partly drawn) [Compound B] | – | diminished | increasing | protected | protected | effectively reduced | markedly reduced | eliminated | 5.4 |
